Experimental data: patent US8853193B2, “Thienopyrimidines containing a substituted alkyl group for pharmaceutical compositions” (Boehringer Ingelheim International GmbH, priority 2010, dated 2014)
Structures can show the parent of a compound that is named as a salt.

Test system: Mnk2 (Mnk2a or Mnk2b) or Mnk1
Assay: not given
Conditions: cells transfected with Mnk2 (Mnk2a or Mnk2b) or Mnk1; cited from earlier work

In the case of `Nc1ncnc2n[nH]c(Nc3ccc(F)cc3)c12` [CGP57380], the “reduction of phosphorylated eIF4E” value is listed as “strong reduction of phosphorylated eIF4E”.

Target: human Mnk2a (Homo sapiens (Human), UniProt Q9HBH9)
Assay: Mnk2a in vitro kinase assay (indirect competitive fluorescence polarization)
Type: biochemical
Conditions: pre-activated GST-Mnk2a 2.5 nM, 20 μM ATP, 30 μM substrate peptide; read-out: MNK2 IC50
Method in brief: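 GST-tagged human Mnk2a expressed in E. coli and glutathione-purified, then activated at 2.5 μM with 150 nM pre-activated NHis-ERK2 and 50 μM ATP in HEPES/KOH pH 7.4, MgCl2, DTT, Brij 78 for 45 min at 30 °C. Phospho-peptide product read by indirect competitive fluorescence polarization against fluorophore-labelled phospho-peptide bound to phospho-specific antibody.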

Chain of human Mnk2a (Q9HBH9 whole entry): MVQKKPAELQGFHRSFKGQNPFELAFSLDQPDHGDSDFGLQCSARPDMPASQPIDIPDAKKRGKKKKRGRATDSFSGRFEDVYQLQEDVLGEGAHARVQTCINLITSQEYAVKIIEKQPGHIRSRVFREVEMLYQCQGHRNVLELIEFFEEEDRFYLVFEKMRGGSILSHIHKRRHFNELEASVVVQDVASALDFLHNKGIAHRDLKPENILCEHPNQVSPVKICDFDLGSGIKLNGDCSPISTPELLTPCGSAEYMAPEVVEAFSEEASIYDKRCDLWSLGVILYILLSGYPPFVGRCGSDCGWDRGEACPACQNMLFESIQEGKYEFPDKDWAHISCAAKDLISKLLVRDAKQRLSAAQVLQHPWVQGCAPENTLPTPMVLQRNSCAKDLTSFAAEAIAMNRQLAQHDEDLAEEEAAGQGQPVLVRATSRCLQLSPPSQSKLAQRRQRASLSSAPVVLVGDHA

In order of falling IC50:
1. COC(=O)c1sc2ncnc(Nc3ccc(F)cc3OC(CN)CN)c2c1C [Compound 18-2, Methyl 4-(2-(1,3-diaminopropan-2-yloxy)-4-fluorophenylamino)-5-methylthieno[2,3-d]pyrimidine-6-carboxylate bis(trifluoroacetate)]  691 nM
2. COC(=O)c1sc2ncnc(Nc3ccc(F)cc3OCCN)c2c1C [Compound 9-2, Methyl 4-(2-(2-aminoethoxy)-4-fluorophenylamino)-5-methyl-thieno[2,3-d]pyrimidine-6-carboxylate hydrochloride]  577 nM
3. COC(=O)c1sc2ncnc(Nc3ccc(F)cc3OC(C)CCNC(C)=O)c2c1C (centres unmarked) [Compound 13-2, Methyl 4-(2-(4-acetamidobutan-2-yloxy)-4-fluorophenyl-amino)-5-methyl-thieno[2,3-d]pyrimidine-6-carboxylate]  471 nM
4. COC(=O)c1sc2ncnc(Nc3ccc(F)cc3OC(C)C(=O)NCCCN)c2c1C (centres unmarked) [Compound 56, 4-{2-[1-(3-Amino-propylcarbamoyl)-ethoxy]-4-fluoro-phenylamino}-5-methyl-thieno[2,3-d]pyrimidine-6-carboxylic acid methyl ester]  314 nM
5. Cc1c(C(=O)NCCO)sc2ncnc(Nc3ccc(F)cc3OC(CO)CO)c12 [Compound 32-29]  170 nM
6. Cc1c(C(=O)NCCO)sc2ncnc(Nc3ccc(F)cc3OC(C)C(=O)NCCCN)c12 (centres unmarked) [Compound 57, 4-{2-[1-(3-Amino-propylcarbamoyl)-ethoxy]-4-fluoro-phenylamino}-5-methyl-thieno[2,3-d]pyrimidine-6-carboxylic acid (2-hydroxy-ethyl)-amide]  110 nM
7. COC(=O)c1sc2ncnc(Nc3ccc(F)cc3OC(C)CCNS(C)(=O)=O)c2c1C (centres unmarked) [Compound 13, Methyl 4-(4-fluoro-2-(4-(methylsulfonamido)butan-2yloxy)phenylamino)-5-methyl-thieno[2,3-d]pyrimidine-6-carboxylate]  90 nM
8. CCNC(=O)C(C)Oc1cc(F)ccc1Nc1ncnc2sc(C(=O)OC)c(C)c12 (centres unmarked) [Compound 61, 4-[2-(1-Ethylcarbamoyl-ethoxy)-4-fluoro-phenylamino}-5-methylthieno[2,3d]pyrimidine-6-carboxylic acid methyl ester]  77 nM
9. Cc1c(C(=O)NCCO)sc2ncnc(Nc3cccnc3OC(C)CCN)c12 (centres unmarked) [Compound 42, 4-[2-(3-Amino-1-methyl-propoxy)-3pyridin-3-ylamino]-5-methyl-thieno[2,3-d]pyrimidine-6-carboxylic acid (2-hydroxy-ethyl)-amide]  70 nM
10. Cc1c(C(=O)NCCCN(C)C)sc2ncnc(Nc3ccc(F)cc3OCCO)c12 [Compound 32-34]  69 nM
11. Cc1c(C(N)=O)sc2ncnc(Nc3ccc(F)cc3OC(C)CNCCC(F)(F)F)c12 (centres unmarked) [Compound 8-2]  64 nM
12. Cc1c(C(N)=O)sc2ncnc(Nc3ccc(F)cc3OC(CO)CO)c12 [Compound 32-30]  56 nM
13. Cc1c(C(=O)NCCCN(C)C)sc2ncnc(Nc3cccnc3OCC3CC3(F)F)c12 (centres unmarked) [Compound 34, 4-(2-((2,2-Difluorocyclopropyl)methoxy)pyridin-3-ylamino)-N-(3-(dimethylamino)propyl)-5-methylthieno[2,3-d]pyrimidine-6-carboxamide hydrochloride]  54 nM
14. COC(=O)c1sc2ncnc(Nc3ccc(F)cc3OC(C)CNS(C)(=O)=O)c2c1C (centres unmarked) [Compound 3-1, Methyl 4-(4-fluoro-(2-(1-methylsulfonamido)propan-2-yloxy)phenylamino)-5-methyl-thieno[2,3-d]pyrimidine-6-carboxylate]  41 nM
15. Cc1c(C(=O)NCCCN(C)C)sc2ncnc(Nc3ccc(F)cc3OC(C)CN)c12 (centres unmarked) [Compound 2-2, 4-(2-(1-Amino-propan-2-yloxy)-4-fluorophenylamino)-N-(3-(diemthyl-amino)propyl)-5-methylthieno[2,3-d]pyrimidine-6-carboxamide bis(trifloroacetate)]  41 nM
16. Cc1c(C(=O)O)sc2ncnc(Nc3ccc(F)cc3OC(C)CC(C)(C)O)c12 (centres unmarked) [Compound 20-2, 4-(4-fluoro-2-(4-hydroxy-4-methylpentan-2-yloxy)phenylamino)-5-methyl-thieno[2,3-d]pyrimidine-6-carboxylic acid]  25 nM
17. Cc1c(C(=O)O)sc2ncnc(Nc3cccnc3OC(C)CCNS(C)(=O)=O)c12 (centres unmarked) [Compound 44, 4-[2-(3-Methanesulfonylamino-1-methyl-propoxy)-pyridin-3-ylamino]-5-methyl-thieno[2,3-d]pyrimidine-6-carboxylic acid]  24 nM
18. CNC(=O)c1sc2ncnc(Nc3ccc(F)cc3OC(C)CN)c2c1C (centres unmarked) [Compound 2-4, 4-(2-(1-Amino-propan-2-yloxy)-4-fluorophenylamino)-N-5-methyl-thieno[2,3-d]-pyrimidin-6-carboxamide trifluoroacetate]  23 nM
19. Cc1c(C(=O)NCCO)sc2ncnc(Nc3cccnc3OC(C)C(F)(F)F)c12 (centres unmarked) [Compound 21-8, 5-Methyl-4-[2-(2,2,2-trifluoro-1-methyl-ethoxy)-pyridin-3-ylamino]-thieno[2,3-d]pyrimidine-6-carboxylic acid (4-hydroxy-ethyl)-amide]  20 nM
20. Cc1c(C(N)=O)sc2ncnc(Nc3cccnc3OCC(F)F)c12 [Compound 30-3, 4-(2-(2,2-Difluoroethoxy)pyridin-3-ylamino)-5-methyl-thieno[2,3-d]pyrimidine-6-carboxamide]  18 nM
21. Cc1c(C(=O)NCCCN(C)C)sc2ncnc(Nc3ccc(F)cc3OC(C)C#N)c12 (centres unmarked) [Compound 63]  17 nM
22. Cc1c(C(=O)O)sc2ncnc(Nc3ccc(F)cc3OCC(F)F)c12 [Compound 32-4]  13 nM
23. Cc1c(C(=O)O)sc2ncnc(Nc3ccc(F)cc3OCC(C)F)c12 (centres unmarked) [Compound 32-12]  12 nM
24. CNC(=O)c1sc2ncnc(Nc3cccnc3OC(C)C(F)(F)F)c2c1C (centres unmarked) [Compound 21-6, N-Methyl-5-methyl-4-(2-(1,1,1-trifluoro-propan-2-yloxy)-pyridin-3-yl-amino)thieno[2,3-d]pyrimidine-6-N-methylcarboxamide]  12 nM
25. CNC(=O)c1sc2ncnc(Nc3ccc(F)cc3OC(CF)CF)c2c1C [Compound 23-4, 4-(2-(1,3-difluoro-propan-2-yloxy)-4-fluorophenylamino)-N,5-dimethylthieno [2,3d]pyrimidine-6-carboxamide]  8 nM
26. Cc1c(C(N)=O)sc2ncnc(Nc3ccc(F)cc3OCC3CC3(F)F)c12 (centres unmarked) [Compound 32-21]  8 nM
27. Cc1c(C(=O)NCC#N)sc2ncnc(Nc3ccc(C#N)cc3OC(CF)CF)c12 [Compound 53, 4-(4-Cyano-2-(2-fluoro-1-fluoromethyl-ethoxy)-phenylamino]-5-methyl-thieno[2,3-d]pyrimidine-6-carboxylic acid cyanomethyl-amide]  7 nM
28. Cc1c(C(=O)O)sc2ncnc(Nc3ccc(F)cc3OC(CF)CF)c12 [Compound 23-2, 4-(2-(1,3-Difluoropropan-2-yloxy)-4-fluorophenylamino)-5-methyl-thieno[2,3-d]pyrimidine-6-carboxylic acid]  6 nM
